Earlier results, collected in US4127531A, “Novel hexapeptides, intermediates therefor, and compositions and methods employing said hexapeptides” (priority 1977, dated 1978).

Columns and labels:
[1] = system: partially purified brain opiate receptor sites
[2] = system: rat; settings: injected directly into the brain of the rat

H-Tyr-Gly-Gly-Phe-Met-OH [methionine enkephalin]
binding to partially purified brain opiate receptor sites [1]: binds stereo-specifically | analgesic activity [2]: only weak analgesic agent of short duration
